One test has as its target T1, human Nav1.2 (Homo sapiens, UniProt Q99250).
T1 construct: host or cells: HEK
Nature of the test: Sodium channel electrophysiology of hermitamides (patch clamp). It is filed as cell-based. The settings on record: HEK human Nav1.2. The method, then: To test whether these compounds were functionally active as sodium channel blockers, the effects of the hermitamides were tested on human embryonic kidney cells (HEK) cells stably expressing human Nav1.2 using the […].
Human embryonic kidney cells (HEK) cells stably expressing human Nav1.2 were a kind gift from Dr. H. A. Hartmann (University of Baltimore, Md., USA) and were grown in DMEM/F12 media (Invitrogen, Corp, CA, USA) supplemented with 10% fetal bovine serum, penicillin (100 U/ml), streptomycin (100 μg/ml) and G418 (500 μg/ml; Sigma, Mo., USA). Cells were grown in a humidified atmosphere of 5% CO2 and 95% air at 37° C.
Sodium currents were recorded using the whole-cell configuration of the patch clamp recording technique with an Axopatch 200 amplifier (Axon Instruments, Foster City, Calif.). All voltage protocols were applied using pCLAMP 9 software (Axon, USA) and a Digidata 1322A (Axon, USA). Currents were amplified and low pass filtered (2 kHz) and sampled at 33 kHz. Borosilicate glass pipettes were pulled using a Brown-Flaming puller (model P87, Sutter Instruments Co, Novato, Calif.) and heat polished to produce electrode resistances of […] when filled with the following electrode solution (in mM); CsCl 130, MgCl2 1, MgATP 5, BAPTA 10, HEPES 5 (pH adjusted to 7.4 with CsOH). Cells were plated on glass coverslips and superfused with solution containing the following composition; (in mM) NaCl 130, KCl 4, CaCl2 1, MgCl2 5, HEPES 5, and glucose 5 (pH adjusted to 7.4 with NaOH).
(S)-Hermitamide B was prepared as 100 mM stock solutions in DMSO and diluted to the desired concentration in perfusion solution. The maximum DMSO concentration used was 0.1% and had no effect on current amplitude. All experiments were performed at room temperature (20-22° C.). After establishing whole-cell, a minimum series resistance compensation of 75% was applied. Sodium currents were elicited by a depolarizing step from a holding potential of −100 mV to +10 mV for a duration of 25 ms at 15 s intervals. (S)-Hermitamide B was applied after a 3 min control period and continued until a steady state current amplitude was observed. All data represent percentage mean block±standard error of the mean (S.E.M.).
(In patch-clamp work, channel activity is measured electrically.)

Test [1] concerns Na+ channel site 2 binding site. Nature of the test: [3H]-BTX assay, rat forebrain membranes. The settings on record: ± S.E.M., n in brackets. The method, then:
In order to determine if the hermitamides bind to the sodium channel, the natural products, their enantiomers, and the racemic mixture were tested for their ability to displace [^3H]-batrachatoxin. Batrachatoxin is a lipid-soluble neurotoxin that binds to site 2 of the sodium channel. This site is known to overlap with the local anesthetic binding […]. Ligands known to bind to […] of the sodium channel include anesthetics, anticonvulsants and antiarrthymics. As a control, phenyloin, a clinically-used sodium channel blocker that is known to displace [^3H]BTX was also included.
The assays were run at 10 μM and recorded as percent displacement of BTX.
Briefly, rat forebrain membranes (10 mg tissue/well) were incubated with [^3H]-BTX (30-60 Ci/mmol). […] The reaction was terminated by rapid vacuum filtration of the reaction contents onto glass fiber filters. Radioactivity trapped onto the filters was determined and compared with control values to ascertain any interactions of the test compound with the Na^+ channel site 2 binding site. Aconitine (1 μM) was used as a positive control (Sigma Aldrich, Inc., St. Louis, Mo.).

The next test concerns CWR22rv-1 cells. Description: CWR22rv-1 prostate cancer cell death (propidium iodide, FACS). It is filed as cell-based, human. The settings on record: 25 μM, after 24 h. The protocol: CWR22Rv1 cells (ATCC, Manassas, Va.) were seeded in 6 well tissue culture plate at density of 300,000 cells/well and maintained in RPMI 1640 (Mediatech, Herndon, Va.) containing 10% fetal bovine serum, 2.5 mM L-glutamine, and penicillin-streptomycin (100 IU/ml and 100 μg/ml, respectively) at 37° C. with 5% CO2. Cells were then switched to serum free RPMI media overnight prior to drug treatment. Compounds were dissolved in 100% dimethylsulfoxide (DMSO) and diluted to the desired concentrations in serum free RPMI. Cells were treated with indicated drug concentrations (in triplicate per treatment point) for 24, 48, 72 hour. After treatment, cells were harvested by trypsinization and fixed in 70% ethanol. The fixed cells were then stained with propidium iodide (50 μg/ml) after treatment with RNase (5 μg/ml). The stained cells were analyzed for DNA content using FACSsort (Becton Dickinson). Cell cycle fractions were quantified with Cell Quest (Becton Dickinson) or ModFit LT (Verity Software House).

For a further test, the system named is site 2 of the VGSC. Nature of the test: [3H]-BTX-B displacement assay at site 2. Format: binding, rat. Conditions: Screen at 40 μM, 2 replicates, referenced to Aconitine.

T1 sequence (Q99250 whole entry): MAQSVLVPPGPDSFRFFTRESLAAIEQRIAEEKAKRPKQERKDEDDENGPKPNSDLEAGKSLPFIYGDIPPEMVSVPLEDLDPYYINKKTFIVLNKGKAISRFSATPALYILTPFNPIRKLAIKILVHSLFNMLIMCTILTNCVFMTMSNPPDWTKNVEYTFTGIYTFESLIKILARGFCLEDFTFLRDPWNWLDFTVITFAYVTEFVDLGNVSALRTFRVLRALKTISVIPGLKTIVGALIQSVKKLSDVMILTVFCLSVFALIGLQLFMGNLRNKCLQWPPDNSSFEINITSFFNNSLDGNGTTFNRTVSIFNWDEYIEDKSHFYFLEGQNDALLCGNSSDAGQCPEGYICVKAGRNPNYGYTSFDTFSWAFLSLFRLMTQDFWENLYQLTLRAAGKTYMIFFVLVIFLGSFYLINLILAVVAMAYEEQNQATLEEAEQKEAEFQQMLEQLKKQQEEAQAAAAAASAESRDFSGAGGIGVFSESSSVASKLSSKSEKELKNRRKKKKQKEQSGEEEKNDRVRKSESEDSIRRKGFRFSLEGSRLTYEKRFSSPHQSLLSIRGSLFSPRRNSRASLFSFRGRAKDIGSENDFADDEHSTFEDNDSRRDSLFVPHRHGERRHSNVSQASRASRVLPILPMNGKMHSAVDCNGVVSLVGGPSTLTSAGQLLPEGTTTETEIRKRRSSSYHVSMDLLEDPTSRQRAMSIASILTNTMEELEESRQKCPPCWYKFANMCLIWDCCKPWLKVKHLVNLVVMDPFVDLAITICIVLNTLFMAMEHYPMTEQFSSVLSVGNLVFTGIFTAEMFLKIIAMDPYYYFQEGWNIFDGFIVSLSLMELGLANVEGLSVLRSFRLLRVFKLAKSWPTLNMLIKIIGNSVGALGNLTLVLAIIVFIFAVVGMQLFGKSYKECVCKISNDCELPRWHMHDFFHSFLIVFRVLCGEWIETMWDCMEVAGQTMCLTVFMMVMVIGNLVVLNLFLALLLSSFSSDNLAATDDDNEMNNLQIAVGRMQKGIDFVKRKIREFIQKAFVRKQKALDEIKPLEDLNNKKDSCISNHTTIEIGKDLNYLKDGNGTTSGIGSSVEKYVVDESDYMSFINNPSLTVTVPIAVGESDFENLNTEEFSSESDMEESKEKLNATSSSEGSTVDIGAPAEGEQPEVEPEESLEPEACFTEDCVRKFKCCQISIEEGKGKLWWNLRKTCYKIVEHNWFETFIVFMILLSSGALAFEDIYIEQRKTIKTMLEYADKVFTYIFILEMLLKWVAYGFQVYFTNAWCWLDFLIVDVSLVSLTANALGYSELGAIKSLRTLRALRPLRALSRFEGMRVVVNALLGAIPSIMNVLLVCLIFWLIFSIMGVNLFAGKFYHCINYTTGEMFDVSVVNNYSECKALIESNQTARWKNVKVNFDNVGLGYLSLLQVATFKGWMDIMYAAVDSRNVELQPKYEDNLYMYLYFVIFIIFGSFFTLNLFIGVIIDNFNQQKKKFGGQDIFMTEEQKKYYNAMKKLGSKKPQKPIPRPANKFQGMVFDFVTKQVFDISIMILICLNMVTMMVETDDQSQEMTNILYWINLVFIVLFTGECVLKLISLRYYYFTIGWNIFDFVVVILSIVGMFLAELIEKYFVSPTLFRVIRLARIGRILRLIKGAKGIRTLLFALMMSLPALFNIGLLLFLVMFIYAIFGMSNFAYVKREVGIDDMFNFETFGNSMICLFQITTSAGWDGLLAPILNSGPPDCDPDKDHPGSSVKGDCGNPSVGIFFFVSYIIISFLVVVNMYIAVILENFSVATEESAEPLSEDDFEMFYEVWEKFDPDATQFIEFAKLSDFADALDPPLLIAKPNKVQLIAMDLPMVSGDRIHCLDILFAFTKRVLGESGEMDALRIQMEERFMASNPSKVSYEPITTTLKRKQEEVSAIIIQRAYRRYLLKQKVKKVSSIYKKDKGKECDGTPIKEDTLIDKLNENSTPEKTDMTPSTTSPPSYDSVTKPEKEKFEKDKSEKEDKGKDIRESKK

`CCCCCCC[C@@H](C/C=C/CCC(=O)NCCc1ccccc1)OC` (racemic) [rac-hermitamide A]: on human Nav1.2, the “Patch-clamp percentage block, 1 μM” value is reported as 49.7 ± 3.8 (4) % and the “Patch-clamp percentage block, 10 μM” value is recorded as 90.2 ± 2.5 (3) %. Besides, the “% [3H]-BTX Displacement At 10 μM” value in test [1] is recorded as 15.71 ± 0.14 (2) %.
Take `CCCCCCC[C@@H](C/C=C/CCC(=O)NCCc1c[nH]c2ccccc12)OC` (racemic) [rac-hermitamide B]: at human Nav1.2, the “Patch-clamp percentage block, 100 nM” value worked out at 24.3%; the “Patch-clamp percentage block, 1 μM” value is 88.4 ± 2.9 (40%; the “Patch-clamp percentage block, 10 μM” value was 100 (1) %. The “% [3H]-BTX Displacement At 10 μM” value in test [1] was 36.05 ± 0.77 (2) %.
In the case of `CCCCCCCC(C/C=C/CCC(=O)O)OC` (racemic) [rac-lyngbic acid], the “Patch-clamp percentage block, 100 μM” value on human Nav1.2 (100 μM) stood at 55.6%. For the same compound, the “% [3H]-BTX Displacement At 10 μM” value in test [1] is 7.35 ± 2.88 (2) %.
Regarding `CCCCCCC[C@](O)(C(N)=O)c1cccc(Cl)c1` [(R)-(−)-2-(3-chloro-phenyl)-2-hydroxy-nonanoic acid amide], in the test on CWR22rv-1 cells, the “cell death of CWR22rv-1 cells” value is reported as “induces cell death”.
Take `CCCCCCC[C@H](C/C=C/CCC(=O)NCCc1ccccc1)OC` [(R)-hermitamide A, Phenethyl (7R,4E)-methoxytetradecenamide]: the “Patch-clamp percentage block, 1 μM” value at human Nav1.2 is given as 58.7 ± 1.3 (4) %. Moreover, in test [1], the “% [3H]-BTX Displacement At 10 μM” value is on record as 13.79 ± 1.28 (2) %.
On to `CCCCCCC[C@H](C/C=C/CCC(=O)NCCc1c[nH]c2ccccc12)OC` [(R)-hermitamide B, 2-(1H-indol-3-yl)-ethyl (7R,4E)-Methoxytetradecenamide], for which, at human Nav1.2, the “Patch-clamp percentage block, 100 nM” value stood at 28.8% and the “Patch-clamp percentage block, 1 μM” value is reported as 93.6 (1) %. Also, the “% [3H]-BTX Displacement At 10 μM” value in test [1] was 20.31 ± 5.82 (2) %.
In the case of `CCCCCCC[C@H](C/C=C/CCC(=O)O)OC` [(R)-lyngbic acid, (7R,4E)-Methoxytetradecenoic Acid], at human Nav1.2, the “Patch-clamp percentage block, 100 nM” value was determined as 11.9% and the “Patch-clamp percentage block, 1 μM” value is reported as 52.5 ± 3.9 (4) %. The “% [3H]-BTX Displacement At 10 μM” value in test [1] is 11.91 ± 0.16 (2) %.
In the case of `CCCCCCC[C@@H](C/C=C/CCC(=O)NCCc1ccccc1)OC` [(S)-hermitamide A, Phenethyl (7S,4E)-methoxytetradecenamide], at human Nav1.2, the “Patch-clamp percentage block, 1 μM” value is on record as roughly 50% and the “Patch-clamp percentage block, 10 μM” value is on record as 94.4 ± 1.3 (4) %. Further, in test [1], the “% [3H]-BTX Displacement At 10 μM” value is recorded as 15.89 ± 3.06 (2) %.
With `CCCCCCC[C@@H](C/C=C/CCC(=O)NCCc1c[nH]c2ccccc12)OC` [(S)-hermitamide B, 2-(1H-indol-3-yl)-ethyl (7S,4E)-Methoxytetradecenamide], at human Nav1.2, the “Patch-clamp percentage block, 1 μM” value is on record as 80% and the “Patch-clamp percentage block, 10 μM” value is 100 (3) %. The “Patch-clamp percentage block, 1 μM” value at human Nav1.2 (listed as Hermitamide B) was roughly 80%. Also, the “% [3H]-BTX Displacement At 10 μM” value in test [1] was 29.02 ± 0.29 (2) %.
With `CCCCCCC[C@@H](C/C=C/CCC(=O)O)OC` [(S)-lyngbic acid, (7S,4E)-Methoxytetradecenoic Acid], the “Patch-clamp percentage block, 10 μM” value on human Nav1.2 was 44.4 ± 0.3 (4) %. Moreover, in test [1], the “% [3H]-BTX Displacement At 10 μM” value is 7.77 ± 2.20 (2) %.
Consider `C#CC(O)(CCCCCCC)c1cccc(Cl)c1` (stereo not drawn) [Compound 12], for which, in the test on site 2 of the VGSC, the “[3H]-BTX-B Binding Data, Displacement %” value was 78%.
In the case of `C#C/C(=C\CCCCCC)c1cccc(Cl)c1` [Compound 13], in the test on site 2 of the VGSC, the “[3H]-BTX-B Binding Data, Displacement %” value came out at 32%.
On the same count and under the same terms, to `C=CCCCCCC1(c2cccc(Cl)c2)NC(=O)NC1=O` (stereo not drawn) [Compound 16] belongs 79%; to `C=CCCCCCC1(c2cccc(Cl)c2)NC(=O)N(Cc2ccccc2)C1=O` (stereo not drawn) [Compound 17], 23%; to `O=C1NC(=O)C(CCCCCC2CO2)(c2cccc(Cl)c2)N1` (stereo not drawn) [Compound 18], 28%.
Consider `O=C1NC(=O)C(CCCCCC2CC2)(c2cccc(Cl)c2)N1` (stereo not drawn) [Compound 20], for which the “[3H]-BTX-B Binding Data, Displacement %” value with site 2 of the VGSC is given as 8%.

Values taken from US8816095B2, “Na channels, disease, and related assays and compositions” (Georgetown University, priority 2008, dated 2014).
